Experimental findings from patent US20090012103A1, “SUBSTITUTED HETEROCYCLIC COMPOUNDS” (priority 2007, published 2009) are described below.

For series [1], the target named is T1, wild-type human cardiac sodium channel, hNav1.5 (Homo sapiens, UniProt Q14524). The series can be described thus: Late INa screening assay (late sodium current, PatchXpress whole cell patch clamp). In kind it is cell-based. Particulars: compound at 10 μM; for inhibition at 10 µM: read-out: Late INa % blk.
Series [2] has as its target T1, wild-type human cardiac sodium channel, hNav1.5. Nature of the series: Peak INa screening assay (tonic block TB and use-dependent block UDB of peak sodium current). In kind it is cell-based. The following applies: compound at 10 μM. The procedure: The late sodium current (Late INa) and peak sodium current (Peak INa) assays are performed on an automated electrophysiology platform, PatchXpress 7000A (MDS Analytical Technologies, Sunnyvale, Calif.), which uses the whole cell patch clamp technique to measure currents through the cell membrane of up to 16 cells at a time. The assay uses an HEK293 (human embryonic kidney) cell line heterologously expressing the wild-type human cardiac sodium channel, hNav1.5, purchased from Millipore (Billerica, Mass.). No beta subunits were coexpressed with the Na channel alpha subunit. […] Experiments are carried out at 24-27° C.
For both the Late INa and Peak INa assays, series resistance compensation is set to 50% and whole-cell compensation is performed automatically. […] Currents through open sodium channels are automatically recorded and stored in the DataXpress2 database (MDS Analytical Technologies, Sunnyvale, Calif.). Analysis is performed using DataXpress2 analysis software and data are compiled in Excel.
Compound stocks are routinely made in glass vials to 10 mM in dimethyl sulfoxide (DMSO). In some cases, when compounds are not soluble in DMSO, they are made in 100% ethanol. Stocks are sonicated as necessary. The extracellular solution for screening Late INa is composed of: 140 mM NaCl, 4 mM KCl, 1.8 mM CaCl2, 0.75 mM MgCl2, and 5 mM HEPES with pH adjusted to 7.4 using NaOH. The extracellular solution for screening Peak INa is composed of: 20 mM NaCl, 120 mM N-methyl-D glucamine, 4 mM KCl, 1.8 mM CaCl2, 0.75 mM MgCl2, and 5 mM HEPES with pH adjusted to 7.4 using HCl. The intracellular solution used to perfuse the inside of the cells for both the Late INa and Peak INa assays contains: 120 mM CsF, 20 mM CsCl, 5 mM EGTA, 5 mM HEPES and pH adjusted to 7.4 with CsOH. Compounds are diluted in extracellular solution to 10 μM in glass vials and then transferred to glass well plates before robotic addition to the cells. The 0 Na extracellular solution used at the end of each experiment for the Late INa and Peak INa assays to measure baseline current contains: 140 mM N-methyl-D-glucamine; 4 mM KCl; 1.8 mM CaCl2; 0.75 mM MgCl2; 5 mM HEPES and pH was adjusted to 7.4 with HCl.
Compounds were also evaluated for their effect in several other assays, including their effect on Peak INa. In some cases, the effect on Peak INa was measured using data from the Late INa assay. […] Since the peak INa can be very large, introducing artifacts in the recording, the concentration of Na^+ in the bath is reduced to 20 mM and a nonpermeant cation is added to compensate for the Na^+ that was omitted from the standard extracellular solution (see above). The peak INa assay uses a holding potential of −100 mV and a 20 ms test pulse to 0 mV to activate the channel. As in the Late INa assay, stepping the voltage to 0 mV causes a rapid increase in negative Na current through hNav1.5 that inactivates within a few ms. No late INa activator is added for the peak assay.
For the separate peak INa assay, both tonic (TB) block and use-dependent (UDB) block of peak inward sodium current by 10 μM compound are determined. TB is block of the channel in the resting state, before the channel opens. TB is simulated in this assay by stimulating the channel to open at a low frequency (0.1 Hz). This is done in order to measure the control current amplitude and monitor current rundown, enabling correction for rundown in the calculation of percent block for TB.

The target in a further series is hERG potassium channel (Homo sapiens, UniProt Q12809). Nature of the series: hERG screening assay (PatchXpress patch clamp, CHO cell line).
Where [3] appears, read: tonic block, read-out: Tonic Peak INa % blk.
The mark [4] stands for this setting: use-dependent block, read-out: UDB Peak INa % blk.

T1 sequence (Q14524 whole entry): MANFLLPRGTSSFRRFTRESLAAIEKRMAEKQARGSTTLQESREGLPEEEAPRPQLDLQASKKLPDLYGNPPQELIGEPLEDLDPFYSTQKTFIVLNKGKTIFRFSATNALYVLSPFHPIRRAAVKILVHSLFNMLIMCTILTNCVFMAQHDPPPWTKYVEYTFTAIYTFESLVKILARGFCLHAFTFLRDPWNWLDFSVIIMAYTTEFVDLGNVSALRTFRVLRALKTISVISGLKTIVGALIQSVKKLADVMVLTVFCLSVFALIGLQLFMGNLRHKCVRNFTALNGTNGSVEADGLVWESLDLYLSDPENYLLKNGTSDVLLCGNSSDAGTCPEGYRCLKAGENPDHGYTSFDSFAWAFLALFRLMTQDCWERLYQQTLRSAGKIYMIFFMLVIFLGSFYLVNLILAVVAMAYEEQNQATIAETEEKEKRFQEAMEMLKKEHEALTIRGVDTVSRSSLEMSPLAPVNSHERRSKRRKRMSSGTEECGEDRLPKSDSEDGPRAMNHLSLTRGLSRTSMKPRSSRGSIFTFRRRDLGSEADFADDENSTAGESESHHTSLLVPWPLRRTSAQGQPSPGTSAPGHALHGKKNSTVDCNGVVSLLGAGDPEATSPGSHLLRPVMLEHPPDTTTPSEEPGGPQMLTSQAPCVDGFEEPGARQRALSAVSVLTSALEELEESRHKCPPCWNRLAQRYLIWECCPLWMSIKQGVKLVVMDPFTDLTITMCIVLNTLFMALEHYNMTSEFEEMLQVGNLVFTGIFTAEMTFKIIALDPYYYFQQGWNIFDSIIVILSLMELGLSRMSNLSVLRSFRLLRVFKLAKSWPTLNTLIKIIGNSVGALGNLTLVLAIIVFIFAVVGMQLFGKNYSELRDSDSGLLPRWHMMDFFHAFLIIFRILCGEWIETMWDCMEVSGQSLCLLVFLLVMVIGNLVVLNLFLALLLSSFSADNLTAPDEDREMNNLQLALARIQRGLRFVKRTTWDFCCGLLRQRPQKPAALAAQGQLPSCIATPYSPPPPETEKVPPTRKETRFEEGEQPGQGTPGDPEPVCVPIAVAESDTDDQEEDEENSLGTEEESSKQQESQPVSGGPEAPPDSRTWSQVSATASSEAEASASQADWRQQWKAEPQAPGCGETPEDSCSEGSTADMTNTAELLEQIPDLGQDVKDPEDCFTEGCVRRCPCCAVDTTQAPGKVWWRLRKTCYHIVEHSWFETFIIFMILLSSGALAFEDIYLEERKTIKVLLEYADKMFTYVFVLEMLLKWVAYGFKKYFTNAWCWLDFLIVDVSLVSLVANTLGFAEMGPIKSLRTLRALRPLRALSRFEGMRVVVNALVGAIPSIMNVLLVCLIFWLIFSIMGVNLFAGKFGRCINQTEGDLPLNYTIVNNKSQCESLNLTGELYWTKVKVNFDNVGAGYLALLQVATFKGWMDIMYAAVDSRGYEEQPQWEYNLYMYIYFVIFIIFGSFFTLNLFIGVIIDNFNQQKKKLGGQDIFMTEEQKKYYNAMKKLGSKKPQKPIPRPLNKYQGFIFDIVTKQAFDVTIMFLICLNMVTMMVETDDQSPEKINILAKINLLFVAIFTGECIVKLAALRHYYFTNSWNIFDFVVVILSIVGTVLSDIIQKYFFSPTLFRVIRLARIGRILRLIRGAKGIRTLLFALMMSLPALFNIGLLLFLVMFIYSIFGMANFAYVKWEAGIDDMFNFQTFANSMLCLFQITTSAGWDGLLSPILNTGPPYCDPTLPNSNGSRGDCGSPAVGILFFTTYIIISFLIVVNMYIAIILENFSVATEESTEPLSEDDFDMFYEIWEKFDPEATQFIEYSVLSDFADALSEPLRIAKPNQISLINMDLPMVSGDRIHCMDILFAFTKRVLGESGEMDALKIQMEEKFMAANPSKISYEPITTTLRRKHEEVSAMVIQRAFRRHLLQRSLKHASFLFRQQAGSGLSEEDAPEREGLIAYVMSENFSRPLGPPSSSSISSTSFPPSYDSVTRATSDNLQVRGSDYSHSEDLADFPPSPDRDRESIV
Sequence of hERG potassium channel (Q12809 whole entry): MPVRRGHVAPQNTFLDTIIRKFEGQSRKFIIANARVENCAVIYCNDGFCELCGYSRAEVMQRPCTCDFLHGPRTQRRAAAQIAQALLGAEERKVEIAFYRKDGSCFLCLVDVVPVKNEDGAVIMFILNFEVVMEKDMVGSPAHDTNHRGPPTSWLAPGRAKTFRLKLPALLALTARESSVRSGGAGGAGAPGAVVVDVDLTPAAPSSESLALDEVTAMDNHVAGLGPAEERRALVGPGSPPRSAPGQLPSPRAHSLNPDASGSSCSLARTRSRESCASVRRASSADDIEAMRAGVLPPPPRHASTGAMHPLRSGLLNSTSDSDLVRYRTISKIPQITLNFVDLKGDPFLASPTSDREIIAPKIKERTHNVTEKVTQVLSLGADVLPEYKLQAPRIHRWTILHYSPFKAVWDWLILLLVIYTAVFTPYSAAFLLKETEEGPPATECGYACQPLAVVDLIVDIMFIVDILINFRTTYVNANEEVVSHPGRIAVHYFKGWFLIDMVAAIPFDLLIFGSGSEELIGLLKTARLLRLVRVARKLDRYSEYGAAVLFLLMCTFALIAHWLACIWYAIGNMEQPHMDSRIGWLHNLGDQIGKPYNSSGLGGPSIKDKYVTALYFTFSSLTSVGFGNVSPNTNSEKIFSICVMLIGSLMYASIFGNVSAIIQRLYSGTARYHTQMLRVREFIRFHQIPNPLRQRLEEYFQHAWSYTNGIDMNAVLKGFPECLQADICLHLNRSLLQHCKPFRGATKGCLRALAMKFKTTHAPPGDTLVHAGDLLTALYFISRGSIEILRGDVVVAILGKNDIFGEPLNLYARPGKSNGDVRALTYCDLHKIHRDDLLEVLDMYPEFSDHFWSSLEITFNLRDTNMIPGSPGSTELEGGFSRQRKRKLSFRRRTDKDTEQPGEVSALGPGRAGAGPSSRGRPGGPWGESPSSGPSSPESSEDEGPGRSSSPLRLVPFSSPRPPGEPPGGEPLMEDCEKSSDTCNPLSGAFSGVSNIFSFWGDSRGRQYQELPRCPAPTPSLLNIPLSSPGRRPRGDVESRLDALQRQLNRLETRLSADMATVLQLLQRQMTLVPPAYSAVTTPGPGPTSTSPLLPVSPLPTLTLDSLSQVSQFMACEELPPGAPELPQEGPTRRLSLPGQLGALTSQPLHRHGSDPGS

For the molecule `CC1=C(C(=O)OCC(F)(F)F)C(c2cccc3ccccc23)n2nnnc2N1` (stereo not shown) [PT-014, 2,2,2-trifluoroethyl 5-methyl-7-(naphthalen-1-yl)-4,7-dihydrotetrazolo[1,5-a]pyrimidine-6-carboxylate], the inhibition at 10 µM in series [1] amounted to 50.9%; in series [2] (setting [3]), 9%.
Consider `CC1=C(C(=O)O[C@@H](C)c2ccccc2)C(c2cccc3ccccc23)n2nnnc2N1` (stereo partly drawn) [PT-048, (S)-1-phenylethyl 5-methyl-7-(naphthalen-1-yl)-4,7-dihydrotetrazolo[1,5-a]pyrimidine-6-carboxylate], for which the inhibition at 10 µM turned out to be 90.8% in series [1] and 58.6% in series [2] (setting [3]).
`CC1=C(C(=O)O[C@@H](C)c2ccccc2)C(c2c3ccccc3cc3ccccc23)n2nnnc2N1` (stereo partly drawn) [PT-055, (S)-1-phenylethyl 7-(anthracen-9-yl)-5-methyl-4,7-dihydrotetrazolo[1,5-a]pyrimidine-6-carboxylate]: the results for the inhibition at 10 µM in series [1] and in series [2] (setting [3]) were 56.3% and 7.6%, respectively.
For `N#CC1=C(N)OC2=C(C(=O)CC(c3ccccc3)C2)C1c1ccsc1` (stereo not shown) [PT-102, 2-amino-5-oxo-7-phenyl-4-(thiophen-3-yl)-5,6,7,8-tetrahydro-4H-chromene-3-carbonitrile] the same measures were 44.9% and 2.7%.
With `CCOC(=O)C1=C(C)NC(C)=C(C(=O)OCC)C1c1ccsc1` [PT-110, diethyl 2,6-dimethyl-4-(thiophen-3-yl)-1,4-dihydropyridine-3,5-dicarboxylate], the results for the inhibition at 10 µM in series [1] and in series [2] (setting [3]) were 41.8% and 0%, respectively.
As for `CCOC(=O)C1=C(C)NC2=C(C(=O)CCC2)C1c1ccc(C)c2ccccc12` (stereo not shown) [PT-135, ethyl 2-methyl-4-(4-methylnaphthalen-1-yl)-5-oxo-1,4,5,6,7,8-hexahydroquinoline-3-carboxylate], the inhibition at 10 µM is 59.9% in series [1] and 9.6% in series [2] (setting [3]).
For `CC1=C(C(=O)OC(C)C)C(c2c[nH]nc2-c2cccs2)C2=C(CC(C)(C)CC2=O)N1` (stereo not shown) [PT-162, isopropyl 2,7,7-trimethyl-5-oxo-4-(3-(thiophen-2-yl)-1H-pyrazol-4-yl)-1,4,5,6,7,8-hexahydroquinoline-3-carboxylate], the results for the inhibition at 10 µM in series [1] and in series [2] (setting [3]) were -0.2% and 1.1%, respectively.
For `CC1=C(C(=O)NCCCCc2ccccc2)C(c2ccsc2)C2=C(CCCC2=O)N1` (stereo not shown) [PT-164, 2-methyl-5-oxo-N-(4-phenylbutyl)-4-(thiophen-3-yl)-1,4,5,6,7,8-hexahydroquinoline-3-carboxamide] the same measures were 32% and 10.2%.
As to `CC1=C(C(=O)O[C@@H](C)c2ccccc2)C(c2sc3ccccc3c2C)n2nccc2N1` (stereo partly drawn) [PT-244, (S)-1-phenylethyl 5-methyl-7-(3-methylbenzo[b]thiophen-2-yl)-4,7-dihydropyrazolo[1,5-a]pyrimidine-6-carboxylate], the values for the inhibition at 10 µM in series [1], in series [2] (setting [3]) and in series [2] (setting [4]) were 68.7%, 66.2% and 44%, respectively.
For `COc1ccccc1COC(=O)C1=C(C)Nc2nnnn2C1c1c(C)cccc1C` (stereo not shown) [PT-262, 2-methoxybenzyl 7-(2,6-dimethylphenyl)-5-methyl-4,7-dihydrotetrazolo[1,5-a]pyrimidine-6-carboxylate], the inhibition at 10 µM in series [1] was 70%; in series [2] (setting [3]), 15.1%; in series [2] (setting [4]) it was 6.9%.
In the case of `CC1=C(c2nnc(Cc3ccccc3)o2)C(c2cccc3ccccc23)C2=C(CCCC2=O)N1` (stereo not shown) [PT-276, 3-(5-benzyl-1,3,4-oxadiazol-2-yl)-2-methyl-4-(naphthalen-1-yl)-4,6,7,8-tetrahydroquinolin-5(1H)-one], the inhibition at 10 µM in series [1] turned out to be 49.7%; in series [2] (setting [3]), 31.3%; in series [2] (setting [4]), 13%.
For `CC1=C(C(=O)OCc2ccccc2)C(c2ccc3ccccc3c2)C2=C(CCCC2=O)N1` (stereo not shown) [PT-320, benzyl 2-methyl-4-(naphthalen-2-yl)-5-oxo-1,4,5,6,7,8-hexahydroquinoline-3-carboxylate] the same measures were 51%, 16.7% and 26.5%.
For `CCOC(=O)[C@@H]1CCCN(c2cc(OC)ccc2C2C(C(=O)OCc3ccccc3)=C(C)Nc3[nH]ncc32)C1` (stereo partly drawn) [PT-327, benzyl 4-(2-((R)-3-(ethoxycarbonyl)piperidin-1-yl)-4-methoxyphenyl)-6-methyl-4,7-dihydro-1H-pyrazolo[3,4-b]pyridine-5-carboxylate] the same measures were 35.3%, 18.5% and 9.4%.
As to `CC1=C(C(=O)OCc2ccccc2)C(c2ccc(N(C)C)c3ccccc23)c2cn[nH]c2N1` (stereo not shown) [PT-332, benzyl 4-(4-(dimethylamino)naphthalen-1-yl)-6-methyl-4,7-dihydro-1H-pyrazolo[3,4-b]pyridine-5-carboxylate], the results for the inhibition at 10 µM in series [1], in series [2] (setting [3]) and in series [2] (setting [4]) were 20%, 11.3% and 2.7%, respectively.
Regarding `CCOC(=O)C1=C(C)Nc2nnnn2C1c1ccccc1-n1ccnc1C.Cl` (stereo not shown) [PT-457, ethyl 5-methyl-7-(2-(2-methyl-1H-imidazol-1-yl)phenyl)-4,7-dihydrotetrazolo[1,5-a]pyrimidine-6-carboxylate hydrochloride], the “hERG Patch Clamp hERG % blk” value on hERG potassium channel (1 μM) is 10.0%; at hERG potassium channel (10 μM), 21.0%. Besides, the inhibition at 10 µM in series [1] stood at 12.6%.
With `CCOC(=O)C1=C(C)Nc2nnnn2C1c1ccccc1-n1ccnc1.Cl` (stereo not shown) [PT-476, ethyl 7-(2-(1H-imidazol-1-yl)phenyl)-5-methyl-4,7-dihydrotetrazolo[1,5-a]pyrimidine-6-carboxylate hydrochloride], the “hERG Patch Clamp hERG % blk” value on hERG potassium channel (1 μM) amounted to 17.5%; on hERG potassium channel (10 μM) it was 23.0%. For the same molecule, the inhibition at 10 µM in series [1] is 2.6%.
For `CCOC(=O)C1=C(C)Nc2nnnn2C1c1ccccc1-n1cccn1.Cl` (stereo not shown) [PT-477, ethyl 7-(2-(1H-pyrazol-1-yl)phenyl)-5-methyl-4,7-dihydrotetrazolo[1,5-a]pyrimidine-6-carboxylate hydrochloride] the same measures were 12.0%, 44.0% and 6.2%.
For the molecule `CCOC(=O)C1=C(C)Nc2nnnn2C1c1ccccc1-c1cccc(-c2nnn[nH]2)c1` (stereo not shown) [PT-493, ethyl 7-(3′-(1H-tetrazol-5-yl)biphenyl-2-yl)-5-methyl-4,7-dihydrotetrazolo[1,5-a]pyrimidine-6-carboxylate], the “hERG Patch Clamp hERG % blk” value on hERG potassium channel (1 μM) and on hERG potassium channel (10 μM) was 10.0% throughout. Further, the inhibition at 10 µM in series [1] is 0.5%.
On to `COC(=O)C1=C(C)Nc2nnnn2C1c1cccc2ccccc12` (stereo not shown) [PT-512, methyl 5-methyl-7-(naphthalen-1-yl)-4,7-dihydrotetrazolo[1,5-a]pyrimidine-6-carboxylate], for which the “hERG Patch Clamp hERG % blk” value on hERG potassium channel (1 μM) is on record as 10.5%; at hERG potassium channel (10 μM), 14.0%. Further, the inhibition at 10 µM in series [1] stood at 26.6%.
As for “H-furo[3,4-e]pyrazolo[3,4-b]pyridin-5(4H)-one [PT-079]”, the “hERG Patch Clamp hERG % blk” value on hERG potassium channel (1 μM) was determined as 57.5%; on hERG potassium channel (10 μM), 96.5%. Also, the “Late INa % blk” value in series [1] is 49.0%.
